Measured values from patent US6946475B1, “Anticancer calcium channel blockers” (University of Virginia Patent Foundation, priority 1999, dated 2005).
Read-outs that look alike come from different tables or passages of the source.

Experiments:
[1] = tested on: Jurkat cells; assay: Measurement of cellular proliferation, Jurkat cells; type: cell-based; details: for Effect on proliferation of Jurkat cells: FIGS. 10-39
Experimental: (§1) Measurement of cellular proliferation: LNCaP cells at 2.5×10^4/well or PC3 cells at 5×10^4/well, both in a final volume of 100 μl, were plated in triplicate in standard flat bottom 96 well tissue culture plates in the presence of drug or vehicle (DMSO). Unless otherwise indicated, cells were grown for 48 hours at 37° C. in a CO2 incubator. Relative cell growth was determined with the CellTiter 96 aqueous cell proliferation assay (Promega, Madison, Wis.) as described by the manufacturer using an automated plate reader. Results were calculated in a blinded fashion and are means of triplicate determinations.
(§2) For the 48 hour proliferation, cells were cultured with calcium channel antagonists or without calcium channel antagonists. The IC50 values of the calcium channel antagonists were determined.
(§3) Using the measurement cell proliferation assay described hereinabove, the cell lines Jurkat, LNCap (prostate cancer cell), PC-31 (prostate cancer cell), DU145 (prostate cancer cell), MDA-468 (breast cancer cell), MDA-36 (Breast cancer cell), MCF-7 (breast cancer cell), MIA PaCa-2 (pancreatic cancer cell), Hep G2 (liver cancer cell), A549 (non-small cell lung cancer cells), NCI H460 (non-small cell lung cancer cells), HT-29 (colon cancer cell), HCT-116 (colon cancer cell) and SK OV-3 (ovarian cancer cell) were cultured in the presence of TH-1177, TH-1205, TH-1201, TH-2109, TH-2029, TH-2043, TN-2085 and TH-2279.

[2] = tested on: LNCaP prostate cancer cells; assay: Measurement of cellular proliferation, LNCaP cells; for Effect on proliferation of LNCaP cells: test concentration or dose not given here; type: cell-based, human; details: for Effect on proliferation of LNCaP cells: FIGS. 10-39
Experimental: as §1, §2, §3

[3] = tested on: PC3 prostate cancer cells; assay: Measurement of cellular proliferation, PC3 cells; type: cell-based, human; details: for IC50: PC-3, 48 hours, read-out: PROLIFERATION IC50 PC-3; for Effect on proliferation of PC3 cells: 48 hours, FIGS. 10-39
Experimental: as §1, §2, §3

[4] = tested on: DU145 (prostate cancer cell); assay: Measurement of cellular proliferation, DU145 cells; type: cell-based; details: DU 145, 48 hours
Experimental: as §1, §2, §3

[5] = tested on: MDA-468 (breast cancer cell); assay: Measurement of cellular proliferation, MDA-468 cells; for Effect on proliferation of MDA-468 cells: test concentration or dose not given here; type: cell-based; details: for IC50: MDA-468, 48 hours; for Effect on proliferation of MDA-468 cells: 48 hours, FIGS. 10-39
Experimental: as §1, §2, §3

[6] = tested on: MDA-361 cells (breast cancer cell); assay: Measurement of cellular proliferation, MDA-361 cells; type: cell-based; details: for Effect on proliferation of MDA-361 cells: 48 hours, FIGS. 10-39
Experimental: as §1, §2, §3

[7] = tested on: MCF-7 (breast cancer cell); assay: Measurement of cellular proliferation, MCF-7 cells; type: cell-based; details: MCF-7, 48 hours
Experimental: as §1, §2, §3

[8] = tested on: MIA PaCa-2 (pancreatic cancer cell); assay: Measurement of cellular proliferation, MIA PaCa-2 cells; type: cell-based; details: MIA PaCa-2, 48 hours
Experimental: as §1, §2, §3

[9] = tested on: Hep G2 (liver cancer cell); assay: Measurement of cellular proliferation, Hep G2 cells; type: cell-based; details: Hep G2, 48 hours
Experimental: as §1, §2, §3

[10] = tested on: A549 (non-small cell lung cancer cells); assay: Measurement of cellular proliferation, A549 cells; type: cell-based; details: A549, 48 hours
Experimental: as §1, §2, §3

[11] = tested on: NCI H460 (non-small cell lung cancer cells); assay: Measurement of cellular proliferation, NCI H460 cells; type: cell-based; details: NCI H460, 48 hours; read-out: PROLIFERATION IC50 NCl H460
Experimental: as §1, §2, §3

[12] = tested on: HT-29 (colon cancer cell); assay: Measurement of cellular proliferation, HT-29 cells; type: cell-based; details: HT-29, 48 hours
Experimental: as §1, §2, §3

[13] = tested on: HCT-116 (colon cancer cell); assay: Measurement of cellular proliferation, HCT-116 cells; type: cell-based; details: HCT 116, 48 hours
Experimental: as §1, §2, §3

[14] = tested on: SK OV-3 (ovarian cancer cell); assay: Measurement of cellular proliferation, SK OV-3 cells; type: cell-based; details: SK-OV-3, 48 hours
Experimental: as §1, §2, §3

[15] = Jurkat, 48 hours, read-out: PROLIFERATION IC50 Jurkat
[16] = LNCaP, 48 hours, read-out: PROLIFERATION IC50 LNCaP
[17] = MDA-361, 48 hours, read-out: PROLIFERATION IC50 MDA-361
[18] = Example 7, Jurkat, read-out: cell proliferation test of Example 6 repeated, Jurkat
[19] = Example 7, LNCaP, read-out: cell proliferation test of Example 6 repeated, LNCaP
[20] = Example 7, MDA-361, read-out: cell proliferation test of Example 6 repeated, MDA-361

| IC50 [1, 15] [µM] | IC50 [2, 16] [µM] | IC50 [3] [µM] | IC50 [4] [µM] | IC50 [5] [µM] | IC50 [6, 17] [µM] | IC50 [7] [µM] | IC50 [8] [µM] | IC50 [9] [µM] | IC50 [10] [µM] | IC50 [12] [µM] | IC50 [13] [µM] | IC50 [14] [µM] | SMILES | IC50 [11] [µM] | Effect on proliferation of Jurkat cells ([1]; 48 hours) | Effect on proliferation of LNCaP cells ([2]; 48 hours) | Effect on proliferation of PC3 cells [3] | Effect on proliferation of MDA-468 cells [5] | Effect on proliferation of MDA-361 cells [6] | other results |
| --- | --- | --- | --- | --- | --- | --- | --- | --- | --- | --- | --- | --- | --- | --- | --- | --- | --- | --- | --- | --- |
| 10 | 4 | 36 | 41 | 14 | 26 | 33 | 17 | 28 | 90 | ~60 | 50 | 80 | COc1ccc(CCCN2CCC[C@H]2COC2c3ccccc3-c3ccccc32)cc1 [TH-2085] | 31 |  |  |  |  |  |  |
| 7 | 4 | 19 | 28 | 21 | 23 | 30 | 17 | 30 | 72 | ~100 | 31 | 30 | COc1ccc(CCN2CCC[C@H]2COC(c2ccc(Cl)cc2)c2ccc(Cl)cc2)cc1 [TH-2019] | 12 |  |  |  |  |  |  |
| 11 | 5 | 18 | 17 | 10 | 16 | 37 | 17 | 30 | 26 | ~60 | 18 | 24 | COc1ccc(CCN2CCC(COC(c3ccccc3)c3ccc(Cl)cc3)CC2)cc1 (stereo not drawn) [TH-2029] | 24 |  |  |  |  |  |  |
| 8 | 4 | 14 | 9 | 8 | 13 | 29 | 17 | > 100 | 20 | > 100 | 10 | 23 | COc1ccc(CCN2CCC(COC(c3ccc(Cl)cc3)c3ccc(Cl)cc3)CC2)cc1 [TH-2043] | 10 |  |  |  |  |  |  |

Second part, the compound before the results:

| SMILES | IC50 [1, 15] [µM] | IC50 [2, 16] [µM] | IC50 [3] [µM] | IC50 [4] [µM] | IC50 [5] [µM] | IC50 [6, 17] [µM] | IC50 [7] [µM] | IC50 [8] [µM] | IC50 [9] [µM] | IC50 [10] [µM] | IC50 [12] [µM] | IC50 [13] [µM] | IC50 [14] [µM] | IC50 [11] [µM] | Effect on proliferation of Jurkat cells ([1]; 48 hours) | Effect on proliferation of LNCaP cells ([2]; 48 hours) | Effect on proliferation of PC3 cells [3] | Effect on proliferation of MDA-468 cells [5] | Effect on proliferation of MDA-361 cells [6] | other results |
| --- | --- | --- | --- | --- | --- | --- | --- | --- | --- | --- | --- | --- | --- | --- | --- | --- | --- | --- | --- | --- |
| COc1cccc(CCN2CCC[C@H]2COC(c2ccccc2)c2ccc(Cl)cc2)c1 (stereo partly drawn) [TH-3105] |  |  |  |  |  |  |  |  |  |  |  |  |  |  |  |  |  |  |  | IC50 [1, 18]: 5 µM; IC50 [2, 19]: 3.2 µM; IC50 [6, 20]: 29 µM |
| COc1ccc(CCN2CCC(COC(c3ccccc3)c3ccccc3)CC2)cc1 [TH-1087] |  |  |  |  |  |  |  |  |  |  |  |  |  |  | concentration dependent inhibition | concentration dependent inhibition | concentration dependent inhibition | concentration dependent inhibition | concentration dependent inhibition |  |
| COc1ccc(CCN2CCCC2COC(c2ccccc2)c2ccc(Cl)cc2)cc1 (stereo not drawn) [TH-1211] | 4 | 3 | 17 | 13 | 11 | 14 | 24 | 17 | 20 | 41 | ~90 | 32 | 23 | 13 | concentration dependent inhibition | concentration dependent inhibition | concentration dependent inhibition | concentration dependent inhibition | concentration dependent inhibition |  |
| c1ccc(C(CN2CCCCC2)c2ccccc2)cc1 [MMR-64] |  |  |  |  |  |  |  |  |  |  |  |  |  |  | inhibition | inhibition | inhibition | inhibition | inhibition |  |
| c1ccc(C(CN2CCC(COC(c3ccccc3)c3ccccc3)CC2)c2ccccc2)cc1 [MMR-70] |  |  |  |  |  |  |  |  |  |  |  |  |  |  | inhibition | inhibition | inhibition | inhibition | inhibition |  |
| COc1ccc(CCN2CCCC(COC(c3ccccc3)c3ccc(Cl)cc3)C2)cc1 (stereo not drawn) [TH-1205] | 11 | 5 | 23 | 21 | 13 | 19 | 70 | 17 | 40 | 93 | ~100 | 30 | 33 | 35 | concentration dependent inhibition | concentration dependent inhibition | concentration dependent inhibition | concentration dependent inhibition | concentration dependent inhibition |  |
| COc1ccc(CCN2CCCC2COC(c2ccccc2)c2ccccc2)cc1 (stereo not drawn) [TH-1113] |  |  |  |  |  |  |  |  |  |  |  |  |  |  | concentration dependent inhibition | concentration dependent inhibition | concentration dependent inhibition | concentration dependent inhibition | concentration dependent inhibition |  |
| COc1ccccc1CCN1CCC[C@H]1COC(c1ccccc1)c1ccc(Cl)cc1 (stereo partly drawn) [TH-3104] |  |  |  |  |  |  |  |  |  |  |  |  |  |  |  |  |  |  |  | IC50 [1, 18]: 3.8 µM; IC50 [2, 19]: 2.4 µM; IC50 [6, 20]: 13 µM |
